Among the data in a flash point compilation (Sun et al. 2020) are flash point values, retold here.

For `CC1CCCO1` (stereo unspecified) [2-methyltetrahydrofuran], the flash point is -11 °C.

In turn, `Cc1cccs1` [2-methylthiophene] returned a flash point of 7 °C. With `CCCCCCCC(C)=O` [2-nonanone], the flash point was determined as 69 °C. The compound `CCCCCCC(C)=O` [2-octanone] yielded a flash point of 62 °C. `CCCC(C)O` (stereo unspecified) [2-pentanol] had a flash point of 40 °C. The same measure for `CC(C)(C)c1ccco1` [2-t-butylfuran]: 7 °C; for `CCCCCCCCCC(C)O` (stereo unspecified) [2-undecanol]: 107 °C. `CCCCCCCCCC(C)=O` [2-undecanone]: the flash point turned out to be 89 °C. As for `CC(C)(C)CC(=O)O` [3,3-dimethylbutanoic acid], the flash point is 88 °C. Turning to `C=CCC#N` [3-butenenitrile], the flash point was determined as 21 °C.

In the case of `CCCCOCCCN` [3-butoxypropylamine], the flash point is 63 °C.

Consider `C=CCI` [3-iodo-1-propene], for which the flash point was determined as 18 °C. Regarding `C=CC(C)C` [3-methyl-1-butene], the flash point was -57 °C. The compound `CC(C)C(C)S` (stereo unspecified) [3-methyl-2-butanethiol] returned a flash point of 19 °C. On to `CC(=O)C(C)C` [3-methyl-2-butanone], for which the flash point worked out at 6 °C.

For `CC=C(C)CC` [3-methyl-2-pentene], the flash point is -6 °C. The same measure for `CCC(C)C(CC)CC` (stereo unspecified) [3-methyl-4-ethylhexane]: 24 °C. As for `CC1CCCC(O)C1` (stereo unspecified) [3-methylcyclohexanol], the flash point was 62 °C. For `CCCCC(C)CC` (stereo unspecified) [3-methylheptane] the value was 7 °C; for `CCCC(C)CC` (stereo unspecified) [3-methylhexane], -3 °C.

In turn, `Cc1cccnc1` [3-methylpyridine] had a flash point of 38 °C. Take `Cc1ccsc1` [3-methylthiophene]: the flash point is 11 °C. `Cc1cccnc1` [3-picoline] yielded a flash point of 40 °C. In the case of `Oc1ccc(Cl)cc1` [4-chlorophenol], the flash point is 115 °C. In the case of `Cc1ccc(Cl)cc1` [4-chlorotoluene], the flash point was found to be 49 °C. In the case of `CC(C)CCCO` [4-methyl-1-pentanol], the flash point amounted to 51 °C. As to `C=CCC(C)C` [4-methyl-1-pentene], the flash point was -31 °C. For `CSCCC=O` [4-thiapentanal] the value was 58 °C. `C=CC1CC=CCC1` (stereo unspecified) [4-vinyl-1-cyclohexene] came in with a flash point of 16 °C. In the case of `C#CCCCCl` [5-chloro-1-pentyne], the flash point was found to be 15 °C. Take `CC=C1CC2C=CC1C2` (stereo unspecified) [5-ethylidene-2-norbornene]: the flash point came to 38 °C.

For the compound `C=CCCCCO` [5-hexen-1-ol], the flash point was determined as 47 °C. Consider `CC(=O)CCC(C)C` [5-methyl-2-hexanone], for which the flash point was determined as 36 °C. Consider `CCC(=O)CC(C)CC` (stereo unspecified) [5-methyl-3-heptanone], for which the flash point stood at 43 °C.

Compound `C=CCCCCCCCCO` [9-decen-1-ol] yielded a flash point of 119 °C. `CCN(C)CC` [N,N-diethylmethylamine]: the flash point was -23 °C. In turn, `CCNC(C)C` [N-ethylisopropylamine] returned a flash point of 16 °C. Compound `CC=NO` [acetaldoxime] displayed a flash point of 36 °C. `CC(=O)OC(C)=O` [acetic anhydride] yielded a flash point of 49 °C. Compound `CC(=O)c1ccccc1` [acetophenone] had a flash point of 82 °C. Consider `C=CC#N` [acrylonitrile], for which the flash point was -1 °C. On to `C=CCOC(C)=O` [allyl acetate], for which the flash point came out at 6 °C. The same measure for `C=C(C)c1ccccc1` [alpha-methylstyrene]: 45 °C; for `O=Cc1ccccc1` [benzaldehyde]: 62 °C; for `c1ccc2occc2c1` [benzofuran]: 56 °C.

As for `OCc1ccccc1` [benzyl alcohol], the flash point is 93 °C.
